Laboratory results from PubChem BioAssay (NCI).
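In this assay, cells in 96-well plates receive the compound at five concentrations for 48 hours. Endpoints are linearly interpolated between the surrounding concentrations. TGI: concentration producing complete growth inhibition.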

Assays:
Assay in all cases: growth of human tumour cells (NCI), 48 h
786-0 renal = test system: 786-0 renal
A498 renal = test system: A498 renal
A549 NSCLC = test system: A549 NSCLC
ACHN renal = test system: ACHN renal
BT-549 breast = test system: BT-549 breast
CAKI-1 renal = test system: CAKI-1 renal
CCRF-CEM leukemia = test system: CCRF-CEM leukemia
COLO 205 colon = test system: COLO 205 colon
DU-145 prostate = test system: DU-145 prostate
EKVX NSCLC = test system: EKVX NSCLC
HCC-2998 colon = test system: HCC-2998 colon
HCT-116 colon = test system: HCT-116 colon
HCT-15 colon = test system: HCT-15 colon
HL-60(TB) leukemia = test system: HL-60(TB) leukemia
HOP-62 NSCLC = test system: HOP-62 NSCLC
HOP-92 NSCLC = test system: HOP-92 NSCLC
HS 578T breast = test system: HS 578T breast
HT29 colon = test system: HT29 colon
IGROV1 ovarian = test system: IGROV1 ovarian
K-562 leukemia = test system: K-562 leukemia
KM12 colon = test system: KM12 colon
LOX IMVI melanoma = test system: LOX IMVI melanoma
M14 melanoma = test system: M14 melanoma
MALME-3M melanoma = test system: MALME-3M melanoma
MCF7 breast = test system: MCF7 breast
MDA-MB-231 breast = test system: MDA-MB-231 breast
MDA-MB-435 = test system: MDA-MB-435
MDA-N = test system: MDA-N
MOLT-4 leukemia = test system: MOLT-4 leukemia
NCI-H226 lung = test system: NCI-H226 lung
NCI-H23 lung = test system: NCI-H23 lung
NCI-H460 lung = test system: NCI-H460 lung
NCI-H522 lung = test system: NCI-H522 lung
NCI/ADR-RES ovarian = test system: NCI/ADR-RES ovarian
OVCAR-3 ovarian = test system: OVCAR-3 ovarian
OVCAR-4 ovarian = test system: OVCAR-4 ovarian
OVCAR-5 ovarian = test system: OVCAR-5 ovarian
OVCAR-8 ovarian = test system: OVCAR-8 ovarian
PC-3 prostate = test system: PC-3 prostate
RPMI-8226 leukemia = test system: RPMI-8226 leukemia
RXF 393 renal = test system: RXF 393 renal
SF-268 CNS = test system: SF-268 CNS
SF-295 CNS = test system: SF-295 CNS
SF-539 CNS = test system: SF-539 CNS
SK-MEL-2 melanoma = test system: SK-MEL-2 melanoma
SK-MEL-28 melanoma = test system: SK-MEL-28 melanoma
SK-MEL-5 melanoma = test system: SK-MEL-5 melanoma
SK-OV-3 ovarian = test system: SK-OV-3 ovarian
SN12C renal = test system: SN12C renal
SNB-19 CNS = test system: SNB-19 CNS
SR leukemia = test system: SR leukemia
T-47D breast = test system: T-47D breast
TK-10 renal = test system: TK-10 renal
U251 CNS = test system: U251 CNS
UACC-257 melanoma = test system: UACC-257 melanoma
UACC-62 melanoma = test system: UACC-62 melanoma
UO-31 renal = test system: UO-31 renal

`Cc1ccc(/C(O)=C/c2nc3ccccc3[nH]c2=O)cc1` gave a TGI (786-0 renal) of 5.61 µM, a TGI (A498 renal) of 58.2 µM and a TGI (A549 NSCLC) of 19.6 µM. The TGI (ACHN renal) was 14.5 µM, the TGI (BT-549 breast) was 95.3 µM and the TGI (CAKI-1 renal) was 14.2 µM. The TGI (CCRF-CEM leukemia) was greater than 100 µM, the TGI (COLO 205 colon) was greater than 100 µM and the TGI (DU-145 prostate) was 21.5 µM. It also gave a TGI (EKVX NSCLC) of 21.1 µM, a TGI (HCC-2998 colon) greater than 100 µM and a TGI (HCT-116 colon) of 5.7 µM. For the same compound, the TGI (HCT-15 colon) was greater than 100 µM, the TGI (HL-60(TB) leukemia) was greater than 100 µM and the TGI (HOP-62 NSCLC) was 5.16 µM. For the same compound, the TGI (HOP-92 NSCLC) was 27.1 µM, the TGI (HS 578T breast) was 6.79 µM and the TGI (HT29 colon) was 67.2 µM. The TGI (IGROV1 ovarian) was 5.92 µM, the TGI (K-562 leukemia) was greater than 100 µM and the TGI (KM12 colon) was greater than 100 µM. For the same compound, the TGI (LOX IMVI melanoma) was 52.1 µM, the TGI (M14 melanoma) was 73.4 µM and the TGI (MALME-3M melanoma) was 13.4 µM. The TGI (MCF7 breast) was greater than 100 µM, the TGI (MDA-MB-231 breast) was 15.2 µM and the TGI (MDA-MB-435) was 31.8 µM. For the same compound, the TGI (MDA-N) was greater than 100 µM, the TGI (MOLT-4 leukemia) was greater than 100 µM and the TGI (NCI-H226 lung) was 6.4 µM. It also gave a TGI (NCI-H23 lung) of 33.4 µM, a TGI (NCI-H460 lung) of 37.3 µM and a TGI (NCI-H522 lung) of 6.59 µM. The TGI (NCI/ADR-RES ovarian) was 23 µM, the TGI (OVCAR-3 ovarian) was 11.2 µM and the TGI (OVCAR-4 ovarian) was 4.04 µM. The TGI (OVCAR-5 ovarian) was greater than 100 µM, the TGI (OVCAR-8 ovarian) was 12.2 µM and the TGI (PC-3 prostate) was greater than 100 µM. It also gave a TGI (RPMI-8226 leukemia) of 47.5 µM, a TGI (RXF 393 renal) of 7.1 µM and a TGI (SF-268 CNS) of 24 µM. For the same compound, the TGI (SF-295 CNS) was 14.6 µM, the TGI (SF-539 CNS) was 27.6 µM and the TGI (SK-MEL-2 melanoma) was 17.6 µM. It also gave a TGI (SK-MEL-28 melanoma) of 23.2 µM, a TGI (SK-MEL-5 melanoma) greater than 100 µM and a TGI (SK-OV-3 ovarian) of 5.64 µM. The TGI (SN12C renal) was 34 µM, the TGI (SNB-19 CNS) was 27.8 µM and the TGI (SR leukemia) was 72.9 µM. The TGI (T-47D breast) was 16.3 µM, the TGI (TK-10 renal) was 11.1 µM and the TGI (U251 CNS) was 22.6 µM. The TGI (UACC-257 melanoma) was 87.4 µM, the TGI (UACC-62 melanoma) was 9.38 µM and the TGI (UO-31 renal) was 21 µM.
